These results are taken from US5719291A, “Cyclohexane derivatives” (Hoffmann-La Roche Inc., priority 1991, dated 1998).

SMILES strings stand for the structures. ≈ marks a conversion by molar mass, not a printed value. Where a name gives a salt, the structure may show the parent alone.

What is called MIC is the lowest concentration that inhibits growth of the organism. The low end stands for a more susceptible organism, the high end for a less susceptible organism.

Holding throughout (experiment): In vitro antifungal activity, MIC (Method A)
What all share (format): cell-based

One assay deals with Aspergillus fumigatus. The conditions noted are these: Aspergillus fumigatus, 72 h, 3 days, 27° C. The procedure: (§1) The in vitro antifungal activities of representative compounds of the present invention were measured by determining the minimal inhibitory concentration (MIC), which is the concentration of an antifungal at which no fungal growth can be observed.
(§2) The MICs were determined by the microbroth dilution procedure according to NCCLS with the following minor modifications (Galgiani et al., Antimicrob. Agents Chemother., 33, 731 (1989). The medium was solidified with 0.2% low melting point agarose and buffered to pH 7.0 with 0.25%: K2 HPO4 in Yeast Nitrogen Base (Difco Lab.). Inoculum size was 1×10^5 cells/ml, and incubation was carried out for 3 days at 27° C. The MICs ([…]) are shown in Table 1. The reference compound is compound (IA) in U.S. Pat. No. 4,952,604. The compounds used are identified by reference to the Examples in which they were prepared.
(§3) The in vitro antifungal activities of the representative compounds of the present invention shown in Table 1 and Table 2 were measured by determining the minimal inhibitory concentrations (MIC: Method A) or 80% growth inhibition concentration (IC80 : Method B) respectively. MIC is defined as the concentration of an antifungal at which growth of fungi is not observed and IC80 is the concentration where cell turbidity measured at OD630 is reduced by 80%.
(§4) Antifungal activities were determined by either method A or B (see below) using microtest plates according NCCLS with minor modifications (Galgiani et at., Antimicrob. Agents Chemother. 33, 731 (1989)).
(§5) (Method A) The medium was solidified with 0.2% low melting point agarose and buffered to pH 7.0 with 0.25% K2 HPO4 in Yeast Nitrogen Base (Difco Lab.). Inoculum size was 1×10^5 cells/ml, and incubation was carried out for 3 days at 27° C. The reference compound is compound (IA) in U.S. Pat. No. 4,952,604.

In a further assay the test system is Candida albicans. The conditions noted are these: Candida albicans, 72 h, 3 days, 27° C. As for the experimental part:
as §1, §2, §3, §4, §5

The subject of the next assay is Cryptococcus neoformans. The conditions noted are these: Cryptococcus neoformans, 72 h, 3 days, 27° C. The procedure:
as §1, §2, §3, §4, §5

Where [1] appears, read: pH 7, Aspergillus fumigatus CF1003, 1×10^5 cells/ml.
Setting [2] is: pH 7, Aspergillus fumigatus CF1004, 1×10^5 cells/ml.
[3] abbreviates: pH 7, Aspergillus fumigatus CF1023, 1×10^5 cells/ml.
Setting [4] is: pH 7, Candida albicans CY1002, 1×10^5 cells/ml.
Setting [5] is: pH 7, Candida albicans CY1005, 1×10^5 cells/ml.
Setting [6] is: pH 7, Candida albicans CY3003, 1×10^5 cells/ml.
[7] abbreviates: pH 7, Cryptococcus neoformans CY1057, 1×10^5 cells/ml.
[8] abbreviates: pH 7, Cryptococcus neoformans CY1059, 1×10^5 cells/ml.
Setting [9] is: pH 7, Cryptococcus neoformans CY1061, 1×10^5 cells/ml.

For the molecule `CCCCCCC/C=C\[C@@H]1OC[C@H](C)[C@H](OC)[C@H]1OC(=O)CN` [Example 1, (2S,3R,4S,5S)-4-methoxy-5-methyl-2-[(Z)-1-nonenyl]tetrahydro-2H-pyran-3-ylglycinate trifluoro acetic acid salt], the MIC with Aspergillus fumigatus (setting [1]) was 100 µg/mL; with Aspergillus fumigatus (setting [2]), 200 µg/mL; in the assay on Aspergillus fumigatus (setting [3]), 100 µg/mL; against Candida albicans (setting [4]) it was 100 µg/mL; against Candida albicans (setting [5]) it was 100 µg/mL; in the assay on Candida albicans (setting [6]) it was 100 µg/mL. The MIC was determined as 1.56 µg/mL against Cryptococcus neoformans (setting [7]), 3.13 µg/mL in the assay with Cryptococcus neoformans (setting [8]) and 6.25 µg/mL with Cryptococcus neoformans (setting [9]).

As to `CCCCCCC/C=C/[C@@H]1OC[C@H](C)C2(OCCO2)[C@H]1OC(=O)CN.O=C(O)C(F)(F)F` [Example 46, (6S,7S,10S)-10-methyl-7-[(E)-1-nonenyl]-1,4,8-trioxaspiro[4,5]decan-6-yl glycinate trifluoroacetic acid salt], the minimum inhibitory concentration (MIC) in the assay with Aspergillus fumigatus (setting [1]) turned out to be 25 µg/mL; with Aspergillus fumigatus (setting [2]), 25 µg/mL; with Aspergillus fumigatus (setting [3]), 25 µg/mL; against Candida albicans (setting [4]), 50 µg/mL; in the assay on Candida albicans (setting [5]), 25 µg/mL; with Candida albicans (setting [6]) it was 25 µg/mL. Besides, the MIC in the assay with Cryptococcus neoformans (setting [7]) was found to be 25 µg/mL; against Cryptococcus neoformans (setting [8]) it was 50 µg/mL; with Cryptococcus neoformans (setting [9]), 50 µg/mL.

For the molecule `CCCCCCCCC[C@@H]1OC[C@H](C)C=C1Cn1ccnc1` [Example 59, 1-[[(2S,5R)-5,6-dihydro-5-methyl-2-nonyl-2H-pyran-3-yl]methyl]-1H-imidazole], the minimum inhibitory concentration (MIC) against Aspergillus fumigatus (setting [1]) was 3.13 µg/mL (≈ 10.3 µM); in the assay with Aspergillus fumigatus (setting [2]), 12.5 µg/mL (≈ 41.1 µM); in the assay with Aspergillus fumigatus (setting [3]), 12.5 µg/mL (≈ 41.1 µM); in the assay on Candida albicans (setting [4]), 50 µg/mL (≈ 164 µM); against Candida albicans (setting [5]) it was 25 µg/mL (≈ 82.1 µM); against Candida albicans (setting [6]), 25 µg/mL (≈ 82.1 µM). Also, the MIC against Cryptococcus neoformans (setting [7]) came out at 3.13 µg/mL (≈ 10.3 µM); against Cryptococcus neoformans (setting [8]), 6.25 µg/mL (≈ 20.5 µM); with Cryptococcus neoformans (setting [9]) it was 3.13 µg/mL (≈ 10.3 µM).

`CO[C@@H]1[C@H](OC(=O)CN)[C@H](CCCC(C)CCCC(C)C)OC[C@@H]1C.O=C(O)C(F)(F)F` (stereo partly drawn) [Example 8, (2S,3R,4S,5S)-2-(4,8-dimethylnonyl)-4-methoxyl-5-methyltetrahydro-2H-pyran-3-yl glycinate trifluoroacetic acid salt]: the MIC turned out to be 50 µg/mL against Aspergillus fumigatus (setting [1]); 100 µg/mL against Aspergillus fumigatus (setting [2]); 50 µg/mL with Aspergillus fumigatus (setting [3]); 50 µg/mL with Candida albicans (setting [4]); 50 µg/mL in the assay with Candida albicans (setting [5]); 50 µg/mL in the assay with Candida albicans (setting [6]). Further, the MIC in the assay with Cryptococcus neoformans (setting [7]), in the assay on Cryptococcus neoformans (setting [8]) and against Cryptococcus neoformans (setting [9]) was 12.5 µg/mL throughout.

On to `CCCCCCC/C=C\[C@@H]1OC[C@H](C)[C@H](OCCC)[C@H]1OC(=O)CN` [Example 22, (2S,3R,4S,5-S)-5-methyl-2-[(Z)-1-nonenyl]-4-prpoxy-tetrahydro-2H-pyran-3-ylglycinate trifluoroacetic acid salt], for which the minimal inhibitory concentration (MIC) in the assay on Aspergillus fumigatus (setting [1]), in the assay with Aspergillus fumigatus (setting [2]), in the assay on Aspergillus fumigatus (setting [3]), in the assay on Candida albicans (setting [4]), with Candida albicans (setting [5]) and against Candida albicans (setting [6]) was 50 µg/mL in each case. The MIC against Cryptococcus neoformans (setting [7]) amounted to 6.25 µg/mL; against Cryptococcus neoformans (setting [8]), 12.5 µg/mL; against Cryptococcus neoformans (setting [9]), 12.5 µg/mL.

On to `CCCCCCC/C=C/[C@@H]1OC[C@H](C)C[C@H]1OC(=O)CN.O=C(O)C(F)(F)F` [Example 28, (2S,3R,5R)-5-methyl-2-[(E)-1-nonenyl]tetrahydro-2H-pyran-3-yl glycinate trifluoroacetic acid salt], for which the MIC against Aspergillus fumigatus (setting [1]) is 50 µg/mL; in the assay on Aspergillus fumigatus (setting [2]), 50 µg/mL; against Aspergillus fumigatus (setting [3]), 25 µg/mL; with Candida albicans (setting [4]), 50 µg/mL; in the assay with Candida albicans (setting [5]), 50 µg/mL; against Candida albicans (setting [6]), 50 µg/mL. In addition, the MIC in the assay on Cryptococcus neoformans (setting [7]) was 3.13 µg/mL; against Cryptococcus neoformans (setting [8]), 3.13 µg/mL; against Cryptococcus neoformans (setting [9]) it was 12.5 µg/mL.
